Data: patent publication US9926275B2 (priority 2013, dated 2018)
Where two headings read alike, the source gives them in different places.

Key:
CB1 receptor [1] = biological target: T1, CB1 receptor (Homo sapiens, UniProt P21554); test: DiscoveRx HitHunter cAMP XS+ assay in cAMP Hunter cell line, allosteric modulation of CP55,940 response; format: cell-based; details: Table 1, preincubation with compound, then CP55,940 challenge, 20 μM forskolin
CB1 receptor [2] = biological target: T1, CB1 receptor; test: β-arrestin recruitment in CNR1 PathHunter cell line, allosteric modulation of CP55,940 response; format: cell-based; details: Table 1, CP55,940 as agonist
rats [3] = format: in vivo
Description: (§1) GAT358 was assessed in two different behavioral tests, the Taste Reactivity (TR) Test and the Light Dark Emergence (LDE) Test. The TR Test is used to assess the possibility of a drug inducing nausea in rats as measured by conditioned gaping to infusion of a 0.01% saccharin solution previously paired with drug administration.
GAT358 was dissolved in a mixture of 4% DMSO, 1% Tween80, 1% Cremophor and 94% Saline (for doses of 5, 10 and 20 mg/kg) and injected at a volume of 3 ml/kg. Assessed was the vehicle (“Veh”), 10 and 20 mg/kg doses of GAT358 in the conditioned gaping model of nausea where rats are infused for 2 min with novel 0.01% saccharin followed immediately by an injection of the appropriate drug dose [Vehicle (n=6), GAT358-10 (n=8) and GAT358-20 (n=8)]. Seventy two hours following conditioning the rats were infused for 2 min with 0.01% saccharin during the drug free TR Test while their orofacial responses were videotaped for subsequent scoring. Further assessed was the Veh, 5 and 10 mg/kg of GAT358 in the LDE test [Veh (n=6), GAT358-5 (n=8) and GAT358-10 (n=8)]. Group assignment was counterbalanced based upon previous drug experience. The rats were administered the appropriate drug dose 45 min prior to being placed in the enclosed dark chamber that allowed access to an open field area where the lighting was 100 lux. The activity of the rat while in the LDE test for 5 min was tracked by Ethovision (Noldus Information Technology) and subsequently the duration of time spent in the open field and activity (distance travelled (cm)/amount of time(sec)) was analyzed.
Results (all analyses were conducted using a one way ANOVA): […]

rats [4] = test: Light Dark Emergence (LDE) Test of anxiety; format: in vivo; details: 5 or 10 mg/kg, p>0.05
Description: as §1
GAT358 was dissolved in a mixture of 4% DMSO, 1% Tween80, 1% Cremophor and 94% Saline (for doses of 5, 10 and 20 mg/kg) and injected at a volume of 3 ml/kg. Assessed was the vehicle (“Veh”), 10 and 20 mg/kg doses of GAT358 in the conditioned gaping model of nausea where rats are infused for 2 min with novel 0.01% saccharin followed immediately by an injection of the appropriate drug dose [Vehicle (n=6), GAT358-10 (n=8) and GAT358-20 (n=8)]. Seventy two hours following conditioning the rats were infused for 2 min with 0.01% saccharin during the drug free TR Test while their orofacial responses were videotaped for subsequent scoring. Further assessed was the Veh, 5 and 10 mg/kg of GAT358 in the LDE test [Veh (n=6), GAT358-5 (n=8) and GAT358-10 (n=8)]. […] The activity of the rat while in the LDE test for 5 min was tracked by Ethovision (Noldus Information Technology) and subsequently the duration of time spent in the open field and activity (distance travelled (cm)/amount of time(sec)) was analyzed. […]

T1 sequence (P21554 whole entry): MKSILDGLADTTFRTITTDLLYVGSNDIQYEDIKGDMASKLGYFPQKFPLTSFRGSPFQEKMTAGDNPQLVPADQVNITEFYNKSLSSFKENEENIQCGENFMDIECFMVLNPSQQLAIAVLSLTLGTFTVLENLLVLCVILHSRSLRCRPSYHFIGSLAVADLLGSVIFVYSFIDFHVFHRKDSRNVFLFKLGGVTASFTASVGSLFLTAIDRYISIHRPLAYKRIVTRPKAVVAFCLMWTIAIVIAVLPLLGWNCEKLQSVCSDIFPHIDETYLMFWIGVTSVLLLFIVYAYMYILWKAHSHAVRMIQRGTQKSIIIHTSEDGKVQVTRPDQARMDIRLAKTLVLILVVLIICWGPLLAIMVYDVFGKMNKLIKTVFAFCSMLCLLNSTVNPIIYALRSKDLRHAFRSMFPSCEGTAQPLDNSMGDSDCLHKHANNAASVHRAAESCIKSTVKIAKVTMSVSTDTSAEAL

## O=c1c(Nc2ccc(Cl)cc2)c(Nc2cccc(-c3cccc(N4CCCC4)n3)c2)c1=O [Compound 38, 3-((4-Chlorophenyl)amino)-4-((3-(6-(pyrrolidin-1-yl)pyridin-2-yl)phenyl)amino)cyclobut-3-ene-1,2-dione]
CB1 receptor [1]
  cAMP % inhibition: 16%
CB1 receptor [1]; read-out: cAMP EC50
  EC50: > 10 µM
CB1 receptor [2]
  β-arrestin % inhibition: 107%
CB1 receptor [2]; read-out: β-arrestin EC50
  EC50: 0.111 µM
Rats [3]; 10 mg/kg, Bonferroni p=0.006
  total activity of rats during the drug-free test with saccharin vs vehicle: significantly lower than the rats in the vehicle group
Rats [3]; 20 mg/kg, Bonferroni p=0.012
  total activity of rats during the drug-free test with saccharin vs vehicle: significantly lower than the rats in the vehicle group
Rats [3]; 10 and 20 mg/kg, drug-free TR test 72 h after conditioning, 2 min saccharin infusion, p>0.05
  conditioned gaping responses vs vehicle: did not result in the expression of conditioned gaping or total aversive responses that differed significantly from the vehicle group
Rats [3]; 10 and 20 mg/kg, drug-free TR test 72 h after conditioning, p>0.05
  total aversive responses (gaping, chin rubs and paw treads) vs vehicle: did not result in the expression of conditioned gaping or total aversive responses that differed significantly from the vehicle group
Rats [3]; 10 and 20 mg/kg, drug-free TR test, p>0.05
  conditional ingestive responding to saccharin infusion: did not alter conditional ingestive responding to saccharin infusion
Rats [4]; 45 min before 5 min LDE test
  time spent in the open field: did not significantly alter the time spent in the open field
Rats [4]; 45 min before test
  activity of rats during the 5 min in the LDE test: did not significantly alter
